Assay results reported in PubChem BioAssay (NCI).
Where “and” joins values, the source holds several entries; their conditions need not be identical. Equal values may be shown once.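 Cells were grown in 96-well plates and exposed to each compound for 48 hours at five concentrations; endpoints were interpolated linearly between bracketing concentrations, or set to the highest concentration if not reached. The concentration for 50% growth inhibition is given as GI50. TGI is the concentration that stops growth completely.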

tested on: EKVX NSCLC; experiment: growth of human tumour cells (NCI), 48 h

Compound	GI50	TGI
OC[C@H]1C[C@](O)(c2ccc(Cl)cc2)[C@@H](c2ccc(Cl)cc2)O1	18.2 µM	48.2 µM
COc1cc(C#CC(=O)OC/C=C/c2ccc3c(c2)OCO3)cc(OC)c1OC		76.9 µM
O/N=C/C1C(OCc2ccccc2)C(OCc2ccccc2)C(OCc2ccccc2)CN1Cc1ccccc1 (centres undefined)		> 100 µM
Cn1nc(N)c2cc([C@@H]3Nc4ccc5[nH]ncc5c4[C@H]4C5CCC(C5)[C@@H]34)ccc21 (some centres undefined)	0.732 µM	67 µM
Cn1cc(CO)c2c1C(=O)C=C(N1CC1)C2=O	0.214 µM	1.15 µM
O=C(O)C1C2C=CC(O2)C1C(=O)NCc1ccccn1 (centres undefined)		> 100 µM
CCN(CC)CCCC(CNc1ccnc2cc(Cl)ccc12)c1ccc(Cl)cc1 (centres undefined)	2.11 µM and 1.67 µM	6.03 µM and 4.11 µM
[Cl][Hg][c]1cc(Br)cc(Br)c1	2.21 µM	4.78 µM
C=C1C(=O)O[C@@H]2C[C@@H]1CC/C(C)=C/CC/C(C)=C/CC[C@@]2(C)O	23.5 µM	48.9 µM
NC(=Nc1c([N+](=O)[O-])cnc2ccccc12)N1CCOCC1		> 100 µM
CCN(CC)c1ccc2c(c1)OC(N)=C(C#N)C2c1cc(OC)c2c(c1)OCO2 (centres undefined)	0.0767 µM	> 100 µM
N#CC(=C1C=CC(=NO)C=C1)c1ccccc1	5.31 µM	21.4 µM
CC(C)=CCNc1ncnc2c1ncn2C1OC(CO)C(O)C1O (centres undefined)	7.79 µM	> 1000 µM
COc1ccc(CN2C(=O)/C(=C\C(=O)c3ccc(OCCN4CCCCC4)cc3)c3ccccc32)cc1	4.94 µM	19.6 µM
O=C(CNc1ccc(Cl)cc1)Nc1ccc(-c2nc3ccccc3s2)cc1	8.02 µM	24.5 µM
CCN(CC)CCC(CNc1ccnc2cc(Cl)ccc12)c1ccc(OC)cc1 (centres undefined)	6.44 µM and 12.7 µM	57.7 µM and > 100 µM
COc1ccc(/C=C(/C(=O)N2CCN(c3ccccc3)CC2)c2cc(OC)c(OC)c(OC)c2)cc1O	0.631 µM	> 100 µM
CN1CCN(CCOc2ccc(-c3cnc4c(-c5ccccc5F)cnn4c3)cc2)CC1	1.65 µM	3.37 µM
CN(C)N=Nc1ccc(NC=O)cc1		> 100 µM
C=C1C(=O)OC2CCN3CC=C(COC(=O)C(C)(O)C4(CO4)C1C)C23 (centres undefined)		> 100 µM

tested on: HT29 colon; experiment: growth of human tumour cells (NCI), 48 h

Compound	GI50	TGI
OC[C@H]1C[C@](O)(c2ccc(Cl)cc2)[C@@H](c2ccc(Cl)cc2)O1	23.7 µM	50.1 µM
COc1cc(C#CC(=O)OC/C=C/c2ccc3c(c2)OCO3)cc(OC)c1OC		> 100 µM
O/N=C/C1C(OCc2ccccc2)C(OCc2ccccc2)C(OCc2ccccc2)CN1Cc1ccccc1 (centres undefined)	10.7 µM and 3.59 µM	78.7 µM and > 100 µM
O=C1NC(=O)C(c2cnc3ccccn23)=C1c1cn2c3c(cc(F)cc13)CN(C(=O)N1CCCCC1)CC2	0.723 µM	20 µM
Clc1nc2ccccc2nc1CI	3.93 µM	13.5 µM
Cn1nc(N)c2cc([C@@H]3Nc4ccc5[nH]ncc5c4[C@H]4C5CCC(C5)[C@@H]34)ccc21 (some centres undefined)	0.387 µM	> 38.1 µM
Cn1cc(CO)c2c1C(=O)C=C(N1CC1)C2=O	< 0.0189 µM	> 57.3 µM
O=C(O)C1C2C=CC(O2)C1C(=O)NCc1ccccn1 (centres undefined)		> 100 µM
CCN(CC)CCCC(CNc1ccnc2cc(Cl)ccc12)c1ccc(Cl)cc1 (centres undefined)	0.484 µM and 0.304 µM	2.35 µM and 1.28 µM
[Cl][Hg][c]1cc(Br)cc(Br)c1	2.62 µM	10.6 µM
C=C1C(=O)O[C@@H]2C[C@@H]1CC/C(C)=C/CC/C(C)=C/CC[C@@]2(C)O	31 µM	> 100 µM
CCN1CCN(C(c2ccc(C(F)(F)F)cc2)c2ccc3cccnc3c2O)CC1 (centres undefined)	5.31 µM	21 µM
COc1ccc(C(C)=O)cc1N1C(=O)C2C(C1=O)C1(c3ccccc3)C(=O)C2(c2ccccc2)C(c2ccc(C)cc2)=C1c1ccc(C)cc1 (centres undefined)	> 100 µM	> 100 µM
NC(=Nc1c([N+](=O)[O-])cnc2ccccc12)N1CCOCC1		> 100 µM
CCN(CC)c1ccc2c(c1)OC(N)=C(C#N)C2c1cc(OC)c2c(c1)OCO2 (centres undefined)	0.0317 µM	0.309 µM
N#CC(=C1C=CC(=NO)C=C1)c1ccccc1	2.16 µM	6.69 µM
CC(C)=CCNc1ncnc2c1ncn2C1OC(CO)C(O)C1O (centres undefined)	1.34 µM	> 1000 µM
COc1ccc(CN2C(=O)/C(=C\C(=O)c3ccc(OCCN4CCCCC4)cc3)c3ccccc32)cc1	1.8 µM	3.57 µM
O=C(CNc1ccc(Cl)cc1)Nc1ccc(-c2nc3ccccc3s2)cc1	3.8 µM	11.4 µM
CCN(CC)CCC(CNc1ccnc2cc(Cl)ccc12)c1ccc(OC)cc1 (centres undefined)	2.47 µM and 0.6 µM	13.2 µM and 11.2 µM
COc1ccc(/C=C(/C(=O)N2CCN(c3ccccc3)CC2)c2cc(OC)c(OC)c(OC)c2)cc1O	5 µM	38.5 µM
Cc1ccc(C)c(C2=C(c3cn(C)c4ccccc34)C(=O)NC2=O)c1	> 16 µM	> 25 µM
CN(C)N=Nc1ccc(NC=O)cc1		> 100 µM
C=C1C(=O)OC2CCN3CC=C(COC(=O)C(C)(O)C4(CO4)C1C)C23 (centres undefined)		> 100 µM

tested on: LOX IMVI melanoma; experiment: growth of human tumour cells (NCI), 48 h

Compound	GI50	TGI
OC[C@H]1C[C@](O)(c2ccc(Cl)cc2)[C@@H](c2ccc(Cl)cc2)O1	17.9 µM	34.8 µM
COc1cc(C#CC(=O)OC/C=C/c2ccc3c(c2)OCO3)cc(OC)c1OC		47.3 µM
O/N=C/C1C(OCc2ccccc2)C(OCc2ccccc2)C(OCc2ccccc2)CN1Cc1ccccc1 (centres undefined)		29.4 µM and > 100 µM
O=C1NC(=O)C(c2cnc3ccccn23)=C1c1cn2c3c(cc(F)cc13)CN(C(=O)N1CCCCC1)CC2		15.8 µM
Clc1nc2ccccc2nc1CI	1.03 µM	3.34 µM
Cn1nc(N)c2cc([C@@H]3Nc4ccc5[nH]ncc5c4[C@H]4C5CCC(C5)[C@@H]34)ccc21 (some centres undefined)	0.515 µM	15.7 µM
Cn1cc(CO)c2c1C(=O)C=C(N1CC1)C2=O	< 0.01 µM	0.0184 µM
O=C(O)C1C2C=CC(O2)C1C(=O)NCc1ccccn1 (centres undefined)		> 100 µM
CCN(CC)CCCC(CNc1ccnc2cc(Cl)ccc12)c1ccc(Cl)cc1 (centres undefined)	0.764 µM and 0.353 µM	2.13 µM and 1.36 µM
[Cl][Hg][c]1cc(Br)cc(Br)c1	1.41 µM	2.86 µM
C=C1C(=O)O[C@@H]2C[C@@H]1CC/C(C)=C/CC/C(C)=C/CC[C@@]2(C)O	5.49 µM	> 100 µM
CCN1CCN(C(c2ccc(C(F)(F)F)cc2)c2ccc3cccnc3c2O)CC1 (centres undefined)	1.71 µM	10.5 µM
COc1ccc(C(C)=O)cc1N1C(=O)C2C(C1=O)C1(c3ccccc3)C(=O)C2(c2ccccc2)C(c2ccc(C)cc2)=C1c1ccc(C)cc1 (centres undefined)	> 100 µM	> 100 µM
NC(=Nc1c([N+](=O)[O-])cnc2ccccc12)N1CCOCC1		> 100 µM
CCN(CC)c1ccc2c(c1)OC(N)=C(C#N)C2c1cc(OC)c2c(c1)OCO2 (centres undefined)	0.0577 µM	3.86 µM
N#CC(=C1C=CC(=NO)C=C1)c1ccccc1	1.17 µM	6.25 µM
CC(C)=CCNc1ncnc2c1ncn2C1OC(CO)C(O)C1O (centres undefined)	0.353 µM	1.5 µM
COc1ccc(CN2C(=O)/C(=C\C(=O)c3ccc(OCCN4CCCCC4)cc3)c3ccccc32)cc1	1.65 µM	3.04 µM
O=C(CNc1ccc(Cl)cc1)Nc1ccc(-c2nc3ccccc3s2)cc1	1.44 µM	2.95 µM
CCN(CC)CCC(CNc1ccnc2cc(Cl)ccc12)c1ccc(OC)cc1 (centres undefined)	1.88 µM and 1.6 µM	4.79 µM and 4.15 µM
COc1ccc(/C=C(/C(=O)N2CCN(c3ccccc3)CC2)c2cc(OC)c(OC)c(OC)c2)cc1O	0.398 µM	> 100 µM
Cc1ccc(C)c(C2=C(c3cn(C)c4ccccc34)C(=O)NC2=O)c1	> 19.5 µM	> 25 µM
CN1CCN(CCOc2ccc(-c3cnc4c(-c5ccccc5F)cnn4c3)cc2)CC1	1.81 µM	3.27 µM
CN(C)N=Nc1ccc(NC=O)cc1		> 100 µM
C=C1C(=O)OC2CCN3CC=C(COC(=O)C(C)(O)C4(CO4)C1C)C23 (centres undefined)		> 100 µM

tested on: NCI-H23 lung; experiment: growth of human tumour cells (NCI), 48 h

Compound	GI50	TGI
OC[C@H]1C[C@](O)(c2ccc(Cl)cc2)[C@@H](c2ccc(Cl)cc2)O1	24.8 µM	58.2 µM
COc1cc(C#CC(=O)OC/C=C/c2ccc3c(c2)OCO3)cc(OC)c1OC		58.5 µM
O/N=C/C1C(OCc2ccccc2)C(OCc2ccccc2)C(OCc2ccccc2)CN1Cc1ccccc1 (centres undefined)	14.1 µM and 2.78 µM	41.7 µM and 26.6 µM
O=C1NC(=O)C(c2cnc3ccccn23)=C1c1cn2c3c(cc(F)cc13)CN(C(=O)N1CCCCC1)CC2	17.2 µM	52.3 µM
Clc1nc2ccccc2nc1CI	6.38 µM	25.3 µM
Cn1nc(N)c2cc([C@@H]3Nc4ccc5[nH]ncc5c4[C@H]4C5CCC(C5)[C@@H]34)ccc21 (some centres undefined)	0.643 µM	17.4 µM
Cn1cc(CO)c2c1C(=O)C=C(N1CC1)C2=O	< 0.01 µM	< 0.0215 µM
O=C(O)C1C2C=CC(O2)C1C(=O)NCc1ccccn1 (centres undefined)		> 100 µM
CCN(CC)CCCC(CNc1ccnc2cc(Cl)ccc12)c1ccc(Cl)cc1 (centres undefined)	1.87 µM and 2.01 µM	4.42 µM and 5.93 µM
[Cl][Hg][c]1cc(Br)cc(Br)c1	2.65 µM	9.02 µM
C=C1C(=O)O[C@@H]2C[C@@H]1CC/C(C)=C/CC/C(C)=C/CC[C@@]2(C)O	4.14 µM	16.2 µM
CCN1CCN(C(c2ccc(C(F)(F)F)cc2)c2ccc3cccnc3c2O)CC1 (centres undefined)	2.35 µM	14.9 µM
COc1ccc(C(C)=O)cc1N1C(=O)C2C(C1=O)C1(c3ccccc3)C(=O)C2(c2ccccc2)C(c2ccc(C)cc2)=C1c1ccc(C)cc1 (centres undefined)	> 100 µM	> 100 µM
NC(=Nc1c([N+](=O)[O-])cnc2ccccc12)N1CCOCC1		> 100 µM
CCN(CC)c1ccc2c(c1)OC(N)=C(C#N)C2c1cc(OC)c2c(c1)OCO2 (centres undefined)	0.0359 µM	14.5 µM
N#CC(=C1C=CC(=NO)C=C1)c1ccccc1	9.92 µM	34.1 µM
CC(C)=CCNc1ncnc2c1ncn2C1OC(CO)C(O)C1O (centres undefined)	2.81 µM	125 µM
COc1ccc(CN2C(=O)/C(=C\C(=O)c3ccc(OCCN4CCCCC4)cc3)c3ccccc32)cc1	6.68 µM	21.6 µM
O=C(CNc1ccc(Cl)cc1)Nc1ccc(-c2nc3ccccc3s2)cc1	2.9 µM	8.8 µM
CCN(CC)CCC(CNc1ccnc2cc(Cl)ccc12)c1ccc(OC)cc1 (centres undefined)	9.4 µM and 10 µM	26.9 µM and 28.6 µM
COc1ccc(/C=C(/C(=O)N2CCN(c3ccccc3)CC2)c2cc(OC)c(OC)c(OC)c2)cc1O	0.938 µM	> 100 µM
Cc1ccc(C)c(C2=C(c3cn(C)c4ccccc34)C(=O)NC2=O)c1	> 25 µM	> 25 µM
CN1CCN(CCOc2ccc(-c3cnc4c(-c5ccccc5F)cnn4c3)cc2)CC1	1.7 µM	3.19 µM
C=C1C(=O)OC2CCN3CC=C(COC(=O)C(C)(O)C4(CO4)C1C)C23 (centres undefined)		> 100 µM

tested on: NCI-H460 lung; experiment: growth of human tumour cells (NCI), 48 h

Compound	GI50	TGI
OC[C@H]1C[C@](O)(c2ccc(Cl)cc2)[C@@H](c2ccc(Cl)cc2)O1	20.2 µM	48.7 µM
COc1cc(C#CC(=O)OC/C=C/c2ccc3c(c2)OCO3)cc(OC)c1OC		77.1 µM
O/N=C/C1C(OCc2ccccc2)C(OCc2ccccc2)C(OCc2ccccc2)CN1Cc1ccccc1 (centres undefined)	8.94 µM and 3.24 µM	32.4 µM and 29.9 µM
